Values quoted from earlier work, collected in US20040234631A1, “Composition comprising soy and use thereof in the provention and/or treatment of various diseases” (priority 2001, published 2004).

What was measured:
estrogenic effect = conditions: in vitro, reported by Knight
blood vessels = conditions: very low concentration

Row | Compound | relative estrogenic potency (estradiol = 100) (estrogenic effect) | concentration causing dilation of blood vessels (blood vessels) [nM]
1 | O=c1c(-c2ccc(O)cc2)coc2cc(O)ccc12 [daidzein] | 0.013 | 
2 | 1-alkyl-2-acetyl analog of phosphatidyl choline [platelet-activating factor] |  | 0.1
